Results taken from patent publication US20240091318A1, “COMBINATION THERAPY COMPRISING LONG ACTING GLP-1/GLUCAGON AND NPY2 RECEPTOR AGONISTS” (Boehringer Ingelheim International GmbH, priority 2022, published 2024).

Experiments:
[1] = Effect on body weight loss and food intake in wildtype Diet Induced Obesity (DIO) mice; assay type: in vivo; conditions: for BW 30 nmol/kg 5 day (body weight loss vs. vehicle group): 30 nmol/kg s.c. once daily
Text: Effect on Body Weight Loss in Wildtype Diet Induced Obesity Mice
Male C57BL6/J pre-fed on 60% high fat diet were obtained from The Jackson Laboratories at >16 weeks of age. Upon arrival of the Diet Induced Obesity (DIO) mice, the mice where single housed to obtain accurate and individual food intake measurements of each animal and assigned an animal number. […] During the entire study animals had ad libitum access to food and water.
Before start of treatment a stratified randomization was performed based on the body weight measured in week −1 prior study start. At study start the age of mice was around 20 weeks. Bodyweight and food intake were measured daily before compound administration. Animals were dosed around one hour before start of the night phase by subcutaneous injection of 30 nmol/kg once daily for 5 till 28 days depending on the experiment. Control animals were dosed by subcutaneous injection daily with vehicle.

[2] = Effect on acute food intake (AFI) in normal NMRI mice; assay type: in vivo; conditions: male NMRI mice, 10 nmol/kg s.c. once, % vs. vehicle group
Protocol: Effect on Acute Food Intake in Normal NMRI Mice
Male NMRI mice were obtained from Charles River (Charles River, Research Models & Services Germany GmbH) or from JanVier (JanVier Labs, France) at 5 weeks of age. […] Room temperature was controlled to 21° C.±1° C., with 60%±20% humidity.
Animals were transferred 5-7 days before the start of the study to a real-time food intake monitoring system, HM-2 system (MBRose, Denmark), to allow acclimatization to experimental conditions. As the animals were uniquely identified with microchips, each individual animal was identified by its microchip upon entry and exit from the food channel. Randomization of the mice for each study group (n=7-8) was based on body weight measured the day before the start of the study. A vehicle-treated (50 mM phosphate buffer pH7 with 5% Mannitol) group was included in each experiment. Six hours before the start of the night phase animals were fasted. One hour before the dark phase animals were dosed once subcutaneously (10 nmol/kg) with test peptide. […] The food intake of the treated groups was normalized (in %) to the average food intake of the group receiving vehicle (Table 1). Statistical significance was evaluated using One-way analysis of variance with Turkey's multiple comparison test. P<0.05 was considered statistically significant.

SMILES | BW 30 nmol/kg 5 day (body weight loss vs. vehicle group) [1] [%] | AFI 10 nmol/kg 24 h (food intake normalized to vehicle group) [2] [%] | body weight lowering efficacy (% BW), combination with Compound I compared to combination with semaglutide ([1]; once daily (FIGS. 6A, 8A vs. 5A, 7A)) | duration of food intake reduction, combination with Compound I vs. combination with semaglutide ([1]; once daily (FIGS. 6B, 8B vs. 5B, 7B)) | total food intake, combination with Compound I ([1]; once daily, area under the curve of food intake (FIGS. 6D, 8D)) | body weight loss in combination with Compound I ([1]; once daily, combination with Compound I (FIGS. 6A, 8A, 10A)) | effect on body weight in combination with semaglutide ([1]; once daily, combination with semaglutide (FIGS. 5A, 7A, 9A))
CC(C)CC(=O)N[C@@H](C)C(=O)N1CCC[C@H]1C(=O)N[C@@H](C)C(=O)N[C@@H](CCCCNC(=O)COCCOCCNC(=O)COCCOCCNC(=O)CC[C@H](NC(=O)CCCCCCCCCCCCCCCCC(=O)O)C(=O)O)C(=O)N1CCC[C@H]1C(=O)N[C@@H](CCC(=O)O)C(=O)N[C@@H](CCC(=O)O)C(=O)N[C@@H](CC(=O)O)C(=O)N[C@@H](C)C(=O)N[C@H](C(=O)N1CCC[C@H]1C(=O)N[C@@H](CCC(=O)O)C(=O)N[C@@H](CCC(=O)O)C(=O)N[C@@H](CC(C)C)C(=O)N[C@@H](CCC(N)=O)C(=O)N[C@@H](CCCNC(=N)N)C(=O)N[C@@H](Cc1ccc(O)cc1)C(=O)N[C@@H](Cc1ccc(O)cc1)C(=O)N[C@H](C(=O)N[C@@H](CO)C(=O)N[C@@H](CC(C)C)C(=O)N[C@@H](CCCNC(=N)N)C(=O)N[C@@H](Cc1c[nH]cn1)C(=O)N[C@@H](Cc1ccc(O)cc1)C(=O)N[C@@H](Cc1ccc(O)cc1)C(=O)N[C@@H](CC(N)=O)C(=O)N[C@@H](Cc1c[nH]c2ccccc12)C(=O)N[C@@H](CC(C)C)C(=O)N[C@H](C(=O)N[C@@H](CCCNC(=N)N)C(=O)N[C@@H](CCC(N)=O)C(=O)N[C@@H](CCCNC(=N)N)C(=O)N[C@@H](Cc1ccc(O)cc1)C(N)=O)[C@@H](C)O)C(C)C)[C@@H](C)O [Compound A, N{alpha-4}-(3-methylbutanoyl)-N{epsilon-7}-[2-(2-{2-[2-(2-{2-[(4S)-4-carboxy-4-(17-carboxyheptadecanamido)butanamido]ethoxy}ethoxy)acetamido]ethoxy}ethoxy)acetamido]-[4A,6A,7K,9E,13T,18Q,22V,28Y,30W,31L]hPYY(4-36)] | 6.7 | 39 |  |  |  |  | 
CC[C@H](C)[C@H](NC(=O)[C@H](CCC(=O)O)NC(=O)[C@H](CCC(=O)O)NC(=O)[C@@H]1CCCN1C(=O)[C@H](CO)NC(=O)[C@H](C)NC(=O)[C@H](CC(=O)O)NC(=O)[C@H](CCC(=O)O)NC(=O)[C@H](CCC(=O)O)NC(=O)[C@@H]1CCCN1C(=O)[C@H](CCCCNC(=O)COCCOCCNC(=O)COCCOCCNC(=O)CC[C@H](NC(=O)CCCCCCCCCCCCCCCCC(=O)O)C(=O)O)NC(=O)[C@H](C)NC(=O)[C@@H]1CCCN1C(=O)[C@H](C)NC(=O)CC(C)C)C(=O)N[C@@H](CCC(N)=O)C(=O)N[C@@H](CCCNC(=N)N)C(=O)N[C@@H](Cc1ccc(O)cc1)C(=O)N[C@@H](Cc1ccc(O)cc1)C(=O)N[C@H](C(=O)N[C@@H](CO)C(=O)N[C@@H](CC(C)C)C(=O)N[C@@H](CCCNC(=N)N)C(=O)N[C@@H](Cc1c[nH]cn1)C(=O)N[C@@H](Cc1ccc(O)cc1)C(=O)N[C@@H](Cc1ccc(O)cc1)C(=O)N[C@@H](CC(N)=O)C(=O)N[C@@H](Cc1c[nH]c2ccccc12)C(=O)N[C@@H](CC(C)C)C(=O)N[C@H](C(=O)N[C@@H](CCCNC(=N)N)C(=O)N[C@@H](CCC(N)=O)C(=O)N[C@@H](CCCNC(=N)N)C(=O)N[C@@H](Cc1ccc(O)cc1)C(N)=O)[C@@H](C)O)C(C)C [Compound E, N{alpha-4}-(3-methylbutanoyl)-N{epsilon-7}-[2-(2-{2-[2-(2-{2-[(4S)-4-carboxy-4-(17-carboxyheptadecanamido)butanamido]ethoxy}ethoxy)acetamido]ethoxy}ethoxy)acetamido]-[4A,6A,7K,9E,17I,18Q,22V,28Y,30W,31L]hPYY(4-36)] | 7.3 | 48 | greater body weight lowering efficacy | longer-lasting effect on food intake | pronounced total food intake reduction | Synergistic body weight loss | synergistic effect
CC[C@H](C)[C@H](NC(=O)[C@H](CCC(=O)O)NC(=O)[C@H](CCC(=O)O)NC(=O)[C@@H]1CCCN1C(=O)[C@@H](NC(=O)[C@H](C)NC(=O)[C@H](CC(=O)O)NC(=O)[C@H](CCC(=O)O)NC(=O)[C@H](CCC(=O)O)NC(=O)[C@@H]1CCCN1C(=O)[C@H](CCCCNC(=O)COCCOCCNC(=O)COCCOCCNC(=O)CC[C@H](NC(=O)CCCCCCCCCCCCCCCCC(=O)O)C(=O)O)NC(=O)[C@H](CCC(=O)O)NC(=O)[C@@H]1CCCN1C(=O)[C@H](C)NC(=O)CC(C)C)[C@@H](C)O)C(=O)N[C@@H](CCC(N)=O)C(=O)N[C@@H](CCCNC(=N)N)C(=O)N[C@@H](Cc1ccc(O)cc1)C(=O)N[C@@H](Cc1ccc(O)cc1)C(=O)N[C@H](C(=O)N[C@@H](CO)C(=O)N[C@@H](CC(C)C)C(=O)N[C@@H](CCCNC(=N)N)C(=O)N[C@@H](Cc1c[nH]cn1)C(=O)N[C@@H](Cc1ccc(O)cc1)C(=O)N[C@@H](Cc1ccc(O)cc1)C(=O)N[C@@H](CC(N)=O)C(=O)N[C@@H](Cc1c[nH]c2ccccc12)C(=O)N[C@@H](CC(C)C)C(=O)N[C@H](C(=O)N[C@@H](CCCNC(=N)N)C(=O)N[C@@H](CCC(N)=O)C(=O)N[C@@H](CCCNC(=N)N)C(=O)N[C@@H](Cc1ccc(O)cc1)C(N)=O)[C@@H](C)O)C(C)C [Compound G, N{alpha-4}-(3-methylbutanoyl)-N{epsilon-7}-[2-(2-{2-[2-(2-{2-[(4S)-4-carboxy-4-(17-carboxyheptadecanamido)butanamido]ethoxy}ethoxy)acetamido]ethoxy}ethoxy)acetamido]-[4A,7K,9E,13T,17I,18Q,22V,28Y,30W,31L]hPYY(4-36)] | 10.6 | 44 |  |  |  |  | 
CC[C@H](C)[C@H](NC(=O)[C@H](CCC(=O)O)NC(=O)[C@H](CCC(=O)O)NC(=O)[C@@H]1CCCN1C(=O)[C@H](CO)NC(=O)[C@H](C)NC(=O)[C@H](CC(=O)O)NC(=O)[C@H](C)NC(=O)[C@H](CCC(=O)O)NC(=O)[C@@H]1CCCN1C(=O)[C@H](CCCCNC(=O)COCCOCCNC(=O)COCCOCCNC(=O)CC[C@H](NC(=O)CCCCCCCCCCCCCCCCC(=O)O)C(=O)O)NC(=O)[C@H](CCC(=O)O)NC(=O)[C@@H]1CCCN1C(=O)[C@H](C)NC(=O)CC(C)C)C(=O)N[C@@H](CCC(N)=O)C(=O)N[C@@H](CCCNC(=N)N)C(=O)N[C@@H](Cc1ccc(O)cc1)C(=O)N[C@@H](Cc1ccc(O)cc1)C(=O)N[C@H](C(=O)N[C@@H](CO)C(=O)N[C@@H](CC(C)C)C(=O)N[C@@H](CCCNC(=N)N)C(=O)N[C@@H](Cc1c[nH]cn1)C(=O)N[C@@H](Cc1ccc(O)cc1)C(=O)N[C@@H](Cc1ccc(O)cc1)C(=O)N[C@@H](CC(N)=O)C(=O)N[C@@H](Cc1c[nH]c2ccccc12)C(=O)N[C@@H](CC(C)C)C(=O)N[C@H](C(=O)N[C@@H](CCCNC(=N)N)C(=O)N[C@@H](CCC(N)=O)C(=O)N[C@@H](CCCNC(=N)N)C(=O)N[C@@H](Cc1ccc(O)cc1)C(N)=O)[C@@H](C)O)C(C)C [Compound J, N{alpha-4}-(3-methylbutanoyl)-N{epsilon-7}-[2-(2-{2-[2-(2-{2-[(4S)-4-carboxy-4-(17-carboxyheptadecanamido)butanamido]ethoxy}ethoxy)acetamido]ethoxy}ethoxy)acetamido]-[4A,7K,9E,10A,17I,18Q,22V,28Y,30W,31L]hPYY(4-36)] | 12.2 | 29 |  |  |  |  | 
